Consider 24 compounds from patent publication US20080051387A1, “TETRAHYDROPYRIDO[3,4-D]PYRIMIDINES AND RELATED ANALOGUES” (priority 2006, published 2008).

Read-outs that look alike come from different tables or passages of the source. Bounds are passed on as bounds.

The inhibition is the drop in the measured response relative to a control, in per cent.

The assay has as its target T1, chimeric human H3 receptor (Homo sapiens, UniProt Q9Y5N1).
T1 construct: rat Galpha-i2 (Gnai2, rat); made in house; host or cells: Sf9 insect cells (baculovirus); P2 membranes
The assay can be described thus: Chimeric human H3 receptor screening GTP binding assay (inhibition of histamine-stimulated GTP-gamma35S binding, Example 8). The format is biochemical. The following applies: 1 h, symbol "!" in column headed Ki. Summed up:
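Sf9 membranes co-expressing chimeric human H3 receptor and heterotrimeric G-protein (35 μg protein) incubated 60 min at room temperature with 4 μM compound, 1 μM histamine and 125 pM GTP-gamma35S in pH 7.4 buffer with 10 μM GDP. Filter-bound radioactivity, nonspecific (10 μM GTP-gammaS) subtracted, reported as % inhibition of histamine signal.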
(In general: GTPγS is a poorly hydrolysed GTP analogue; its binding reports G protein activation.)

The mark [1] stands for this setting: assay of Example 8, read-out: percent inhibition of agonist-induced GTP-gammaS binding to H3.
The mark [2] stands for this setting: assay described in Example 8, read-out: Ki ("!": percent inhibition of agonist-induced GTP-gammaS binding to H3).

T1 sequence (Q9Y5N1 with tags, fused parts or gaps): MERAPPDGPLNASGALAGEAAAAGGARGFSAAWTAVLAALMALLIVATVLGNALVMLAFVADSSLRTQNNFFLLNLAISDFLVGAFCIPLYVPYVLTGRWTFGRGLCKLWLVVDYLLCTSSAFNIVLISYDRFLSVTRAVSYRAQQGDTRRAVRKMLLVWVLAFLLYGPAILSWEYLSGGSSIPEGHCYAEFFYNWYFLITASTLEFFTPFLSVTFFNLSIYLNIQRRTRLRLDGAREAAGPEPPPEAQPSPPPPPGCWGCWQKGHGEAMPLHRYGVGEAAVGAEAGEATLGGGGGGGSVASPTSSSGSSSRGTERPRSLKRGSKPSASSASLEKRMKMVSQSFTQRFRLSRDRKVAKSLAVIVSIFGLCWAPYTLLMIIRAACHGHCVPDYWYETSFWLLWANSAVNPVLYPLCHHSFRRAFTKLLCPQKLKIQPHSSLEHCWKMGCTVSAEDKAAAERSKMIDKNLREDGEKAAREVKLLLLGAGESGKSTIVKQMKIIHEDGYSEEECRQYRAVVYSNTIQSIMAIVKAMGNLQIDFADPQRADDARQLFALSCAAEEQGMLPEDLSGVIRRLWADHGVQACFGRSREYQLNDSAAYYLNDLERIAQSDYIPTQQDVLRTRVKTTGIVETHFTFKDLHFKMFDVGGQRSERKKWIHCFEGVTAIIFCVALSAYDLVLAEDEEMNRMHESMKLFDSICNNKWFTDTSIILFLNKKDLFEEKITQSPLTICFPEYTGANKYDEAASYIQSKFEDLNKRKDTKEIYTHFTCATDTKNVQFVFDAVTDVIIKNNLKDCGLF

Take `CCSc1ccc(C(=O)N2CCc3cnc(N4CCN(C5CCC5)CC4)nc3CC2)cc1` [Compound 370, 2-(4-cyclobutylpiperazin-1-yl)-7-[4-(ethylthio)benzoyl]-6,7,8,9-tetrahydro-5H-pyrimido[4,5-d]azepine]: the inhibition at 4 µM under setting [1] is no less than 90%.
Same read-out and setting: the result for `COc1ccc(C(=O)N2CCc3cnc(N4CCN(C5CCC5)CC4)nc3CC2)cc1F` [Compound 371, 2-(4-cyclobutylpiperazin-1-yl)-7-(3-fluoro-4-methoxybenzoyl)-6,7,8,9-tetrahydro-5H-pyrimido[4,5-d]azepine] reads no less than 90%; that for `O=C(c1ccc(Oc2ccccc2)cc1)N1CCc2cnc(N3CCN(C4CCC4)CC3)nc2CC1` [Compound 372, 2-(4-cyclobutylpiperazin-1-yl)-7-(4-phenoxybenzoyl)-6,7,8,9-tetrahydro-5H-pyrimido[4,5-d]azepine], no less than 90%; that for `O=C(c1ccc(OC(F)(F)F)cc1)N1CCc2cnc(N3CCN(C4CCC4)CC3)nc2CC1` [Compound 373, 2-(4-cyclobutylpiperazin-1-yl)-7-[4-(trifluoromethoxy)benzoyl]-6,7,8,9-tetrahydro-5H-pyrimido[4,5-d]azepine], no less than 90%.
Same read-out and setting: the result for `O=C(c1cccc(Oc2ccccc2)c1)N1CCc2cnc(N3CCN(C4CCC4)CC3)nc2CC1` [Compound 374, 2-(4-cyclobutylpiperazin-1-yl)-7-(3-phenoxybenzoyl)-6,7,8,9-tetrahydro-5H-pyrimido[4,5-d]azepine] reads no less than 90%; that for `O=C(c1ccc2c(c1)CCO2)N1CCc2cnc(N3CCN(C4CCC4)CC3)nc2CC1` [Compound 375, 2-(4-cyclobutylpiperazin-1-yl)-7-(2,3-dihydro-1-benzofuran-5-ylcarbonyl)-6,7,8,9-tetrahydro-5H-pyrimido[4,5-d]azepine], no less than 90%; that for `COc1ccc(C(=O)N2CCc3cnc(N4CCN(C5CCC5)CC4)nc3CC2)cc1OC1CCCC1` [Compound 376, 2-(4-cyclobutylpiperazin-1-yl)-7-[3-(cyclopentyloxy)-4-methoxybenzoyl]-6,7,8,9-tetrahydro-5H-pyrimido[4,5-d]azepine], no less than 90%.
On the same count and under the same terms, with `O=C(c1ccc2c(c1)OCO2)N1CCc2cnc(N3CCN(C4CCC4)CC3)nc2CC1` [Compound 377, 7-(1,3-benzodioxol-5-ylcarbonyl)-2-(4-cyclobutylpiperazin-1-yl)-6,7,8,9-tetrahydro-5H-pyrimido[4,5-d]azepine] the figure was no less than 90%; with `COc1ccc(C(=O)N2CCc3cnc(N4CCN(C5CCC5)CC4)nc3CC2)cc1OC` [Compound 378, 2-(4-cyclobutylpiperazin-1-yl)-7-(3,4-dimethoxybenzoyl)-6,7,8,9-tetrahydro-5H-pyrimido[4,5-d]azepine], no less than 90%; with `CCCOc1ccc(C(=O)N2CCc3cnc(N4CCN(C5CCC5)CC4)nc3CC2)cc1` [Compound 379, 2-(4-cyclobutylpiperazin-1-yl)-7-(4-propoxybenzoyl)-6,7,8,9-tetrahydro-5H-pyrimido[4,5-d]azepine], no less than 90%.
`CC(C)Oc1ccc(C(=O)N2CCc3cnc(N4CCN(C5CCC5)CC4)nc3CC2)cc1` [Compound 380, 2-(4-cyclobutylpiperazin-1-yl)-7-(4-isopropoxybenzoyl)-6,7,8,9-tetrahydro-5H-pyrimido[4,5-d]azepine]: under setting [1], the inhibition at 4 µM is no less than 90%.
As to `COc1cc(OC)cc(C(=O)N2CCc3cnc(N4CCN(C5CCC5)CC4)nc3CC2)c1` [Compound 381, 2-(4-cyclobutylpiperazin-1-yl)-7-(3,5-dimethoxybenzoyl)-6,7,8,9-tetrahydro-5H-pyrimido[4,5-d]azepine], under setting [2], the inhibition at 4 µM is no less than 90%.
Take `CCCCOc1ccc(C(=O)N2CCc3cnc(N4CCN(C5CCC5)CC4)nc3CC2)cc1` [Compound 382, 7-(4-butoxybenzoyl)-2-(4-cyclobutylpiperazin-1-yl)-6,7,8,9-tetrahydro-5H-pyrimido[4,5-d]azepine]: the inhibition at 4 µM under setting [2] was no less than 90%.
Still for that read-out and setting: with `CCOc1ccc(C(=O)N2CCc3cnc(N4CCN(C5CCC5)CC4)nc3CC2)cc1OCC` [Compound 383, 2-(4-cyclobutylpiperazin-1-yl)-7-(3,4-diethoxybenzoyl)-6,7,8,9-tetrahydro-5H-pyrimido[4,5-d]azepine] the figure was no less than 90%.
Still for that read-out and setting: the result for `COc1cc(C(=O)N2CCc3cnc(N4CCN(C5CCC5)CC4)nc3CC2)cc(OC)c1OC` [Compound 384, 2-(4-cyclobutylpiperazin-1-yl)-7-(3,4,5-trimethoxybenzoyl)-6,7,8,9-tetrahydro-5H-pyrimido[4,5-d]azepine] reads no less than 90%; that for `CCOc1cc(C(=O)N2CCc3cnc(N4CCN(C5CCC5)CC4)nc3CC2)cc(OCC)c1OCC` [Compound 385, 2-(4-cyclobutylpiperazin-1-yl)-7-(3,4,5-triethoxybenzoyl)-6,7,8,9-tetrahydro-5H-pyrimido[4,5-d]azepine], no less than 90%.
The same measure, in the same setting: the result for `O=C(c1cccc(Cl)c1)N1CCc2cnc(N3CCN(C4CCC4)CC3)nc2CC1` [Compound 386, 7-(3-chlorobenzoyl)-2-(4-cyclobutylpiperazin-1-yl)-6,7,8,9-tetrahydro-5H-pyrimido[4,5-d]azepine] reads no less than 90%; that for `O=C(c1ccc(Cl)cc1)N1CCc2cnc(N3CCN(C4CCC4)CC3)nc2CC1` [Compound 387, 7-(4-chlorobenzoyl)-2-(4-cyclobutylpiperazin-1-yl)-6,7,8,9-tetrahydro-5H-pyrimido[4,5-d]azepine], no less than 90%; that for `Cc1cccc(C(=O)N2CCc3cnc(N4CCN(C5CCC5)CC4)nc3CC2)c1F` [Compound 388, 2-(4-cyclobutylpiperazin-1-yl)-7-(2-fluoro-3-methylbenzoyl)-6,7,8,9-tetrahydro-5H-pyrimido[4,5-d]azepine], no less than 90%.
For `O=C(c1c(F)cccc1F)N1CCc2cnc(N3CCN(C4CCC4)CC3)nc2CC1` [Compound 389, 2-(4-cyclobutylpiperazin-1-yl)-7-(2,6-difluorobenzoyl)-6,7,8,9-tetrahydro-5H-pyrimido[4,5-d]azepine], the inhibition at 4 µM under setting [2] was no less than 90%.
For the compound `O=C(c1ccc(F)c(F)c1)N1CCc2cnc(N3CCN(C4CCC4)CC3)nc2CC1` [Compound 390, 2-(4-cyclobutylpiperazin-1-yl)-7-(3,4-difluorobenzoyl)-6,7,8,9-tetrahydro-5H-pyrimido[4,5-d]azepine], the inhibition at 4 µM under setting [2] was no less than 90%.
On the same count and under the same terms, the result for `O=C(c1cc(F)ccc1F)N1CCc2cnc(N3CCN(C4CCC4)CC3)nc2CC1` [Compound 391, 2-(4-cyclobutylpiperazin-1-yl)-7-(2,5-difluorobenzoyl)-6,7,8,9-tetrahydro-5H-pyrimido[4,5-d]azepine] reads no less than 90%; that for `O=C(c1ccc(F)cc1F)N1CCc2cnc(N3CCN(C4CCC4)CC3)nc2CC1` [Compound 392, 2-(4-cyclobutylpiperazin-1-yl)-7-(2,4-difluorobenzoyl)-6,7,8,9-tetrahydro-5H-pyrimido[4,5-d]azepine], no less than 90%.
With `O=C(c1ccc(F)c(Cl)c1)N1CCc2cnc(N3CCN(C4CCC4)CC3)nc2CC1` [Compound 393, 7-(3-chloro-4-fluorobenzoyl)-2-(4-cyclobutylpiperazin-1-yl)-6,7,8,9-tetrahydro-5H-pyrimido[4,5-d]azepine], the inhibition at 4 µM under setting [2] was no less than 90%.
